Laboratory results as given in patent US4692433A, “Method and composition for regulating serum calcium levels of mammals” (The Regents of the University of California, priority 1985, dated 1987).

Columns and labels:
[1] = test system: fasted normal rats; assay: Serum calcium change after oral administration of salmon calcitonin preparations; format: in vivo, rat
Procedure: (§1) The polypeptide hormone is incorporated into the liposome as follows: the phospholipid components are dissolved in an organic solvent such as chloroform. The solvent is then removed to produce a lipid film. A buffer solution containing the polypeptide hormone is then added and mixed to form a suspension of the phospholipid film and polypeptide hormone. The suspension is then sonicated to form the liposome-entrapped polypeptide hormone. The suspension is then centrifuged at 120,000 times g for 16 hours to obtain a pellet consisting of liposome-entrapped hormone while the supernatant contains the unentrapped hormone. The liposomes in the pellet are then taken up in a small amount of buffer and subsequently used to influence calcium homestasis by oral administration.
Purified salmon and human calcitonin or human parathyroid hormone (1-34 amino acid fragment) were incorporated into liposomes consisting of natural or synthetic phospholipids and positively-charged amine-containingamphiphile. Liposomes containing the entrapped hormones were isolated by centrifugation, resuspended in buffer and administered by stomach tube to fasted normal rats (calcitonin) or fasted parathyroidectomized rats (parathyroid hormone). The serum calcium was determined at various time intervals in treated and untreated animals to assess the effect of the respective preparations. […]

[2] = test system: fasted parathyroidectomized rats; assay: Serum calcium change after oral administration of PTH preparations by stomach tube; format: in vivo, rat
Procedure: as §1
Purified salmon and human calcitonin or human parathyroid hormone (1-34 amino acid fragment) were incorporated into liposomes consisting of natural or synthetic phospholipids and positively-charged amine-containingamphiphile. Liposomes containing the entrapped hormones were isolated by centrifugation, resuspended in buffer and administered by stomach tube to fasted normal rats (calcitonin) or fasted parathyroidectomized rats (parathyroid hormone). The serum calcium was determined at various time intervals in treated and untreated animals to assess the effect of the respective preparations.
450 micromoles of egg phosphatidylcholine (ePC) and 50 micromoles of stearylamine (SA) were dissolved in 2 to 3 ml of anhydrous chloroform placed in a 30 ml glass stopper tube and the solvent was removed in vacuo. To the thin film of lipid remaining on the wall of the tube was added 5.0 ml of buffer (20 mM NaCl containing 5 mM Tris, pH 7.4) containing 1 mg human PTH (hPTH 1-34) and 1×10^6 CPM of I^125 -human PTH tracer (hPTH 1-34). The buffer was mixed at room temperature for 5 minutes using a vortex mixer.
After vortexing the mixture was sonicated for 3 minutes at room temperature using the cuphorn of a Heat Systems Ultrasonics sonicator at maximal output. […]

Row | Compound | enhancement of the calcitonin effect on serum calcium by additive (in words) [1] | Change in serum Ca2+ ([2]; Table 2: oral, 40 μg, after 2 hr, triplicate, mean ± Std. error of mean) | Change in serum Ca2+ ([2]; Table 3: 2 hours after oral administration to rats, 40 μg PTH, values marked (3) are triplicate mean ± Std. error of mean) [mg/dL] | effect on serum calcium (in words) ([2]; oral administration to rats, equivalent dose)
1 | CC(=O)Oc1ccccc1C(=O)O [aspirin] | enhances slightly the effect of free CT |  |  | 
2 | Free PTH: free human parathyroid hormone, 1-34 amino acid fragment, given orally (SVSEIQLMHNLGKHLNSMERVEWLRKKLQDVHNF; Parathyroid hormone; UniProt P01270 32-65, looked up, fragment) |  | +0.08 0.25 mg/dl | -0.05 | no effect
